Consider 16 compounds from patent US20230086702A1, “SUBSTITUTED 2-AMINO-PYRAZOLYL-[1,2,4]TRIAZOLO[1,5A]PYRIDINE DERIVATIVES AND USE THEREOF” (The Johns Hopkins University, priority 2019, published 2023).

Broadly, the IC50 is the point on the concentration scale where inhibition reaches its midpoint.

One test deals with T1, DLK (Homo sapiens, UniProt Q12852).
T1 construct: 10 nM DLK, catalytic domain, Carna Biosiences; purchased Carna Biosciences ('Carna Biosiences' [sic])
T1 sequence (Q12852 125-366 limits assumed): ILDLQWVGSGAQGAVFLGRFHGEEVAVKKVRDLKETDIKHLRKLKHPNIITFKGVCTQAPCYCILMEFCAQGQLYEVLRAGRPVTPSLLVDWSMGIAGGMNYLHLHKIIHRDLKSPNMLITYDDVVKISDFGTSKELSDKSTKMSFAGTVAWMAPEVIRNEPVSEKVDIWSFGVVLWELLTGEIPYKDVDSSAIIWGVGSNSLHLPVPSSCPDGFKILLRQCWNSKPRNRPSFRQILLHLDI
Kind of test: DLK biochemical assay (TR-FRET, MKK7 phosphorylation). The following applies: DLK catalytic domain, MKK7 substrate, 60 μM ATP. Summed up: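 Human DLK activity measured as phosphorylation of His-tagged MKK7 at T275/S277, detected by TR-FRET between Eu-anti-phospho-MKK7 donor (excitation 340 nm) and XL665-anti-His acceptor (665 nm). Signal taken as the XL665/Eu ratio. Detection buffer: 25 mM Tris/HCl pH 7.5, 100 mM EDTA, 100 mM NaCl, 200 mM KF, 0.01% Tween 20.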

A further test concerns the target T2, LZK (Homo sapiens, UniProt O43283).
T2 construct: 10 nM LZK, catalytic domain, Carna Biosiences in assay buffer; purchased Carna Biosciences ('Carna Biosiences' [sic])
T2 sequence (O43283 168-409 limits assumed): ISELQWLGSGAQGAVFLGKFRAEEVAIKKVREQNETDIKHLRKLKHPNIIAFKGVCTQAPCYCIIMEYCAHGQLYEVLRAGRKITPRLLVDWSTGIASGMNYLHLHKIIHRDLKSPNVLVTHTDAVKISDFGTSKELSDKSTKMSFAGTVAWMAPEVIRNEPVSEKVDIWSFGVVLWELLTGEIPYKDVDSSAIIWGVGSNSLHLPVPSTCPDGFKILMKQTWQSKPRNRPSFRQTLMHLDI
Briefly: LZK biochemical assay (TR-FRET, MKK7 phosphorylation). The following applies: LZK catalytic domain, MKK7 substrate, 15 μM ATP. Background: TR-FRET usually uses a lanthanide donor and a delayed reading to cut background.

On to `CC[C@H](C)NC(=O)c1cc(-c2cnn(C(c3ccc(C(F)(F)F)nc3)C(C)C)c2)cc2nc(N)nn12` (single isomer, unassigned) [Example I-105], for which the results for the half-inhibitory concentration (IC50) against DLK and against LZK were 13 nM and 14 nM, respectively.
Taken in the same sequence, the figures for `CC[C@H](C)NC(=O)c1cc(-c2cnn(C(c3ccc(C(F)(F)F)nc3)C3CC3)c2)cc2nc(N)nn12` (single isomer, unassigned) [Example I-108] were 28 nM and 17 nM.
As for `CC[C@H](C)NC(=O)c1cc(-c2cnn([C@H](c3ccc(C(F)(F)F)nc3)C3CC3)c2)cc2nc(N)nn12` (single isomer, unassigned) [Example I-109], the figures for the IC50 against DLK and at LZK were 1.8 nM and 3.5 nM, respectively.
Regarding `CC[C@H](C)NC(=O)c1cc(-c2cnn(C(c3ccc(C(F)(F)F)nc3)C3CCOCC3)c2)cc2nc(N)nn12` (single isomer, unassigned) [Example I-111], the IC50 against DLK was found to be 0.5 nM; against LZK, 1.4 nM.
Taken in the same sequence, the figures for `CC[C@H](C)NC(=O)c1cc(-c2cnn(C(c3ccc(C(F)(F)F)nc3)C3CCOCC3)c2)cc2nc(N)nn12` (single isomer, unassigned) [Example I-112] were 8 nM and 7 nM.
Taken in the same sequence, the figures for `CCC(c1ccc(OCC(F)(F)F)nc1)n1cc(-c2cc(C(=O)N[C@@H](C)CC)n3nc(N)nc3c2)cn1` (single isomer, unassigned) [Example I-114] were 49 nM and 130 nM.
Taken in the same sequence, the figures for `CCC(c1ccc(OCC(F)(F)F)nc1)n1cc(-c2cc(C(=O)N[C@@H](C)CC)n3nc(N)nc3c2)cn1` (single isomer, unassigned) [Example I-115] were 4.2 nM and 20 nM.
Take `CC[C@H](C)NC(=O)c1cc(-c2cnn(C(c3ccc(OCC(F)(F)F)nc3)C(C)C)c2)cc2nc(N)nn12` (single isomer, unassigned) [Example I-117]: the IC50 amounted to 73 nM on DLK and 250 nM against LZK.
Taken in the same sequence, the figures for `CC[C@H](C)NC(=O)c1cc(-c2cnn(C(c3ccc(OCC(F)(F)F)nc3)C(C)C)c2)cc2nc(N)nn12` (single isomer, unassigned) [Example I-118] were 8.6 nM and 29 nM.
Taken in the same sequence, the figures for `CC[C@H](C)NC(=O)c1cc(-c2cnn(C(c3ccc(OCC(F)(F)F)nc3)C3CC3)c2)cc2nc(N)nn12` (single isomer, unassigned) [Example I-120] were 44 nM and 140 nM.
Take `CC[C@H](C)NC(=O)c1cc(-c2cnn(C(c3ccc(OCC(F)(F)F)nc3)C3CC3)c2)cc2nc(N)nn12` (single isomer, unassigned) [Example I-121]: the concentration for half-maximal inhibition (IC50) on DLK was determined as 1.9 nM; against LZK, 30 nM.
In the same order, the values of `CC[C@H](C)NC(=O)c1cc(-c2cnn(C(c3c(F)cncc3F)C(C)C)c2)cc2nc(N)nn12` (single isomer, unassigned) [Example I-124] are 60 nM and 270 nM.
Taken in the same sequence, the figures for `CC[C@H](C)NC(=O)c1cc(-c2cnn(C(c3c(F)cncc3F)C(C)C)c2)cc2nc(N)nn12` (single isomer, unassigned) [Example I-125] were 5.4 nM and 66 nM.
Taken in the same sequence, the figures for `CC[C@H](C)NC(=O)c1cc(-c2cnn(C(c3ccnc(OC)c3)C(C)C)c2)cc2nc(N)nn12` (single isomer, unassigned) [Example I-127] were 17 nM and 52 nM.
`CC[C@H](C)NC(=O)c1cc(-c2cnn([C@H](c3ccnc(OC)c3)C(C)C)c2)cc2nc(N)nn12` (single isomer, unassigned) [Example I-128]: the concentration for half-maximal inhibition (IC50) at DLK came to 0.5 nM; against LZK it was 3.3 nM.
Taken in the same sequence, the figures for `CCC(c1ccc(Cl)s1)n1cc(-c2cc(C(=O)N[C@@H](C)CC)c3nc(N)nn3c2)cn1` (single isomer, unassigned) [Example I-130] were 53 nM and 100 nM.
